The structures appear in SMILES notation.

Among the data in patent US10722437B2, “Cosmetic agents with “improved protection against body odor”” (Henkel AG & Co. KGaA, priority 2016, dated 2020) are deodorizing effect values, retold here.

For the test, the system named is body odor. In words: Neutralization of body odor: specimen on left armpit vs anti-transpirant base suspension on right armpit, worn T-shirt rated by trained persons. The test is classed as in vivo, human. The note with it: statement in words on the body odor test; 0.3 wt. % in anti-transpirant base suspension. As for the experimental part:
The following anti-transpirant base suspension was used to determine the synergistic effect with respect to the neutralization of body odor (values in wt. %):
Each of the following cyclical alcohols of the Formula (I) and/or menthyl compounds of the Formula (II) were added to said composition, wherein the total concentration of alcohol and/or menthyl compound in the suspension is 0.3 wt. % (all values in wt. %, relative to the used anti-transpirant suspension):
Said suspensions, each with a weight ratio of 15:85, were then placed in aerosol cans with a propellant mixture of propane and n-butane (weight ratio 15:85). Specimens No. 1 to 11 were each applied to the left armpit, the anti-transpirant base suspension to the right armpit. 24 hours after application, the body odor on the worn T-shirt on the left armpit (treated with specimens No. 1 to 11) were compared to the body odor of the right armpit (treated with anti-transpirant base suspension) by trained persons. The following rating scale was used: 0=no difference between specimen No. 1 to 11 and anti-transpirant base suspension; +=body odor reduced compared to anti-transpirant base suspension; ++=body odor no longer discernible on the T-shirt.
On to `CC(O)C1CCCCC1` (stereo not drawn) [1-cyclohexylethanol], for which the deodorizing effect result is listed as “deodorizing effect”. For `CC(=O)O[C@@H]1C[C@H](C)CC[C@H]1C(C)C` [menthylacetate] the value was “deodorizing effect”; for `CC(CO)CCCC1CCCCC1` (stereo not drawn) [2-methyl-5-cyclohexylpentanol], “a deodorizing effect is achieved”.
